Columns and labels:
RPN13 [1] = target: T1, RPN13 (Homo sapiens, UniProt Q16186); test: Rpn13 immunoblot in ANBL6.BR cells; assay type: cell-based; design: endogenous in cells; host or cells: MM.1S; MM.1S-CRBN KO; RPMI-8226; ANBL6.BR; conditions: ANBL6.BR (bortezomib-resistant); 400 nM; 16 hours
Description: MM.1S cells, which were treated with DMSO control, bortezomib, or WL40 at indicated concentration for 3 hours; protein lysates were analyzed for different proteasome activities (CT-L, chymotrypsin-like; T-L, trypsin-like; C-L, caspase-like). FIG. 20B is a bar graph showing percent proteasome activity after normalization with DMSO control (mean±SD; n=3). Recombinant 20S proteasome was incubated with DMSO, bortezomib, or WL40 for 30 minutes, followed by assessment of the above-noted proteasome activities. FIG. 20C MM.1S cells were pretreated with exemplary proteasome inhibitor MG132 (10 μM) for 1 hour, followed by addition of WL40 (400 nM) for 8 hours. […] Total protein lysates were subjected to immunoblots for Rpn13 and α-tubulin. […] FIG. 20E ANBL6.BR cells were treated with WL40 (400 nM) or RA190 (500 nM) for 16 hours; protein lysates were subjected to immunoblot analysis using anti-Rpn13 or anti-β-actin Abs.
Cellular protein extracts were prepared using RIPA lysis buffer (50 mM Tris-HCl, 150 mM NaCl, 1% NP-40, 0.5% sodium deoxycholate, and 0.1% SDS). […]
Next, the effect of WL40 on additional MM cell lines, including p53-mutated RPMI-8226 cells or bortezomib-resistant ANBL6.BR cells, was evaluated. […]

INA6 MM cells = test: INA6 cell viability; assay type: cell-based, Human; conditions: IL-6-dependent INA6; 48 hours
Text: (§1) The IC50 of WL40 for cell lines is shown.

RPN13 [2] = target: T1, RPN13; test: RPN13 AlphaScreen (Rpn13 / biotinylated polyUb recognition); assay type: binding; conditions: RA190 as positive control
Description: Assays were performed with minimal modifications from the manufacturer's protocol (PerkinElmer, USA). All reagents were diluted in 50 mM HEPES, 150 mM NaCl, 0.1% w/v BSA, 0.01% w/v Tween20, pH 7.5, and allowed to equilibrate to room temperature prior to addition to plates. After addition of Alpha beads to master solutions, all subsequent steps were performed under low light conditions. A 2× solution of components with final concentrations of RPN13 at 670 nM, Ni-coated Acceptor Bead at 20 μg/ml, and 5 nM biotinylated-poly-Ub K48-linked chains (UCB-230, BostonBiochem, USA) was added in 10 μL to 384-well plates (AlphaPlate-384, PerkinElmer, USA). Plates were spun down at 150×g, and 100 nL of compound in DMSO from stock plates were added by pin transfer using a Janus Workstation (PerkinElmer, USA). The streptavidin-coated donor beads (20 μg/ml final) were added, as with previous the solution, in a 2×, 10 μL volume. Following this addition, plates were sealed with foil to prevent light exposure and evaporation. The plates were spun down again at 150 g. Plates were incubated at room temperature for 1 hour, and then read on an Envision 2104 (PerkinElmer, USA), using the manufacturer's protocol.
Several experiments were performed to confirm the specificity of WL40. […] It was then examined whether the bivalent molecule, WL40, can bind to Rpn13. […]

CD138+ patient MM cells = test: Viability of CD138+ patient MM cells (CellTiter-Glo); assay type: cell-based; conditions: Homo sapiens, CD138+ patient MM cells (patients 1-4), 48 hours, read-out: cell viability IC50 range
Description: as §1
Human MM cell lines MM.1S, MM.1R, RPMI-8226, ANBL6.WT, ANBL6.BR, DOX40, INA6, and normal PBMCs were cultured in RPMI1640 complete medium. Informed consent was obtained from ah patients in accordance with the Helsinki protocol. MM CD138-positive cells, bone marrow stromal cells (BMSCs), and plasmacytoid dendritic cells (pDCs) from MM patients were isolated and cultured as described previously.^32

[3] = test system: MM.1S cells co-cultured with patient BMSCs; test: MM.1S co-culture with patient BMSCs (WST); assay type: cell-based, Human; conditions: 48 hours
Text: as §1

MM.1S cells = conditions: human, 48 h
Description: FIGS. 4A and 4B show multiple myeloma 1S (MM.1S) cells treated with RA190, WL40, and WL44 at the indicated concentrations for 24 hours. Wst-1 assay was used to test cell viability.
In FIG. 13B, multiple myeloma cells (MM.1S) were treated with RA190 or compound JQRA at the indicated concentrations for 72 hours, and the percentage of viable cells was measured.
Purified CD138^+ patient MM cells, which were treated with DMSO control or WL40 at indicated concentrations for 48 hours, followed by assessment for cell viability using CellTiter-Glo assay (mean±SD of triplicate cultures; p<0.001). […] Normal PBMCs from healthy donors were treated with DMSO control or WL40 at indicated concentrations for 48 hours, and then analyzed for cell viability using CellTiter-Glo assay (mean±SD of quadruplicate cultures). […] MM.1S cells were cultured with or without patient BMSCs in the presence or absence of WL40 for 48 hours, and cell proliferation was measured by WST assay (mean±SD; n=3; p<0.0001). […] MM.1S cells were cultured with or without patient pDCs in the presence or absence of WL40 for 48 hours, and cell proliferation was measured by WST assay (mean±SD; n=3; p<0.0001).

T1 sequence (Q16186 whole entry): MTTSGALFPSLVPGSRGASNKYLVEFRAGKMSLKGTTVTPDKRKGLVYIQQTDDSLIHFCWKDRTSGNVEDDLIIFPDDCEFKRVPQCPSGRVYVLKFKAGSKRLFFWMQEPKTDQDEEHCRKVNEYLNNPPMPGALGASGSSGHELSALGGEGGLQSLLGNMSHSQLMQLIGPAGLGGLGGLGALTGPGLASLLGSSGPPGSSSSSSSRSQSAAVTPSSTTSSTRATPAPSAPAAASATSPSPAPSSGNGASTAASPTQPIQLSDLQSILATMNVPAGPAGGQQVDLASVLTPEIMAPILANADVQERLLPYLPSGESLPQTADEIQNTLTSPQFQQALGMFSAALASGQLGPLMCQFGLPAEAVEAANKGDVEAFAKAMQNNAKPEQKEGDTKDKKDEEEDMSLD

SMILES: O=C1CCC(N2C(=O)c3cccc(NCCOCCOCCOCCC(=O)N[C@@H](Cc4ccccc4)C(=O)N4C/C(=C\c5ccc(Cl)c(Cl)c5)C(=O)/C(=C/c5ccc(Cl)c(Cl)c5)C4)c3C2=O)C(=O)N1 (stereo partly drawn) [WL40]
- Rpn13 levels (immunoblot) (RPN13 [1]): induced RPN13 degradation
- cytotoxic activity (cell viability) (INA6 MM cells): cytotoxic activity
- Rpn13 binding (RPN13 [2]): binds to Rpn13
- IC50 (CD138+ patient MM cells): 95 to 170 nM
- viability of MM cells in co-culture [3]: dose-dependent decrease in the viability of MM cells
- cytotoxicity (cell viability) (MM.1S cells): more cytotoxic than the parental Rpn13 inhibitor RA190

— US11702402B2, “Small molecules that block proteasome-associated ubiquitin receptor RPN13 function and uses thereof” (DANA-FARBER CANCER INSTITUTE, INC., priority 2018, dated 2023)
